According to article PMC9386018, “A lymphatic-absorbed multi-targeted kinase inhibitor for myelofibrosis therapy” (Nature Communications, 2022):
Where “and” joins values, the source holds several entries; their conditions need not be identical. Identical values can stand only once. Like-named read-outs stand apart in the source and are kept apart here.

What was measured:
[1] = Bioavailability studies: recovery in feces and urine; format: in vivo, mouse; settings: for LP-182 Recovered (mg) Feces / LP-182 Recovered (mg) Urine / Fa: individual replicates; for Fa: from Feces, read-out: LP-182 Bioavailability (%)
Method: Seven groups of female CD-1 mice (n = 4 per dosing group) received a single oral dose of LP-182 at 0, 100, 200, 400, 600, 800 and 1000 mg kg^−1 solubilized in Maisine CC. […] Urine and fecal samples were collected over 24 h at 24, 48 and 72 h intervals using metabolic cages, and quantitation of LP-182 in each sample was determined by the University of Michigan Pharmacokinetics Core. Briefly, water was added to fecal samples at an average ratio of 2.5 ± 1.6 (w/w) water:feces to generate fecal homogenates using a tissue homogenizer (Omni International TH), then approximately 200 mg of homogenate was diluted 5-fold with 20% (v/v) acetonitrile in water prior to analysis. […] The cumulative amount of compound recovered over 72 h in feces and urine was determined from sample analyte concentrations provided by the core, then converted to percent recovered by normalization to the amount of compound administered. […] LP-182 dose (mg kg^−1):LP-182 administered (mg) is 100:2.7; 200:5.4; 400:10.8; 600:16.2; 800:21.6; 1000:27.0. Data was generated from n = 4 individual animals per compound dose.

[2] = Rat mesenteric lymph duct cannulation model: lymphatic fluid and blood; format: in vivo; settings: anesthetized rats; for Lymphatic fluid Concentration (ng/mL or ng/g): individual animals
Method: A rat mesenteric lymph duct cannulation model was used to collect and quantify LP-182 in lymphatic fluid, blood, and lymphatic proteo-lipid sub-fractions similar to previously described methods[37],[40]. Male Sprague-Dawley rats (n = 7) were anesthetized by isoflurane (Piramel, PA) and placed on a heated pad maintained at 37 °C using a Kent Scientific (Torrington, CT) low flow vaporizer and SomnoSuite for pulse oximetry and thermal regulation, respectively. The carotid artery, mesenteric lymph duct and duodenum were cannulated, and normal saline was continuously infused into the duodenum at 1.7 mL h^−1 using a constant rate infusion pump. After approx. 0.5 h, 50 mg kg^−1 of LP-182 solubilized in ~1.7 mL of either Maisine CC or a mixture of 93% Maisine CC and 7% Labrasol (Gattefossé; Saint-Priest, France) was infused over 1 h into the duodenum, followed by normal saline (as above) for the duration of the experiment. Hourly fractions of lymphatic fluid were collected continually (rate of ~0.5–1.2 mL h^−1) for approx. 6 h, while arterial blood samples (10–20 µL) were collected once per hour and stored at −20 °C for future analysis. Lymphatic fluid time course samples were either frozen or pooled for subsequent fractionation by ultracentrifugation to isolate proteo-lipid sub-fractions similar to previously described methods. Separation of chylomicrons was achieved by layering lymphatic fluid under PBS (Gibco; ThermoFisher Scientific) in a polyallomer ultracentrifuge tube (Beckman, CA), and centrifugation in a L8-70M ultracentrifuge (Beckman, CA) at 202,048 x g using a SW40Ti rotor (Beckman, CA) for 95 min at 15 °C. Following centrifugation, the semi-solid chylomicron layer at the top of the centrifuge tube was recovered and stored at −20 °C for future analysis. After replacing the void volume with PBS, the bottom layer underwent further ultracentrifugation for an additional 16 h as above, at which time a viscous dispersion of VLDL was collected from the top of the tube, and an aqueous fraction containing LDL/HDL from the bottom, which were stored at −20 °C for future analysis. All lymphatic fluid, blood, and fractionated chylomicron, VLDL, and LDL/HDL samples were analyzed by mass spectrometry for quantitation of LP-182 as outlined below. Relative LP-182 in lymphatic fluid proteo-lipid sub-fractions was calculated as the amount of compound in a specified fraction as a percentage of the cumulative amount of compound measured in all fractions. […] Relative LP-182 in blood was calculated as the amount of compound measured in a specified temporal fraction of blood as a percentage of the amount of compound measured in an equal volume of the same temporal fraction of lymphatic fluid, with the average calculated from all fractions. Data was generated from n = 2 individual animals sampled per time point per study condition due to limitations in blood volume collection.
Standards and compound extraction from biological fluids or tissues was performed using similar protocols, all resulting in recoveries ≥90%. Briefly, acetonitrile was added to a final concentration of 60–80% to bone marrow, whole blood, plasma, lymphatic fluid, lymphatic proteo-lipid sub-fractions, or mesenteric lymph node samples for compound extraction. Extraction was performed by shaking and/or bead rupture using a Precellys Evolution tissue homogenizer (Bertin Technologies SAS). […] Optimization of MS and MS/MS parameters for MRM quantitation and maximum sensitivity of individual compounds was performed using SCIEX Analyst software (AB Sciex). […] All LC-MS/MS acquisitions were performed with an independent standard curve for each group of analytes and for each individual run. All solvents utilized were of Optima LC-MS Grade (Fisher Scientific). Data was generated from n ≥ 2 individual animals per compound per study condition or dose.

[3] = 1 h intra-duodenal infusion 50 mg kg^−1, 6 h

Structure (SMILES): O=C(NOCCOCCOCCOCCC(=O)N1CCN(c2cnc3ccc(-c4cnc(Cl)c(NS(=O)(=O)c5ccc(F)cc5)c4)cc3n2)CC1)c1ccc(F)c(F)c1Nc1ccc(I)cc1F [LP-182, N-(2-(2-(2-(3-(4-(7-(6-chloro-5-((4-fluorophenyl)sulfonamido)pyridin-3-yl)quinoxalin-2-yl)piperazin-1-yl)-3-oxopropoxy)ethoxy)ethoxy)ethoxy)-3,4-difluoro-2-((2-fluoro-4-iodophenyl)amino)benzamide]
- LP-182 Recovered (mg) Feces ([1]; Dose 100 mg/kg): 0.2704 mg and 0.2192 mg and 0.3774 mg and 0.8162 mg
- LP-182 Recovered (mg) Feces ([1]; Dose 200 mg/kg): 0.8447 mg and 0.5724 mg and 1.4803 mg and 1.5068 mg
- LP-182 Recovered (mg) Feces ([1]; Dose 400 mg/kg): 1.4042 mg and 2.0055 mg and 2.0997 mg and 2.356 mg
- LP-182 Recovered (mg) Feces ([1]; Dose 600 mg/kg): 3.3135 mg and 1.6755 mg and 3.7882 mg and 2.917 mg
- LP-182 Recovered (mg) Feces ([1]; Dose 800 mg/kg): 3.1521 mg and 5.2995 mg and 6.9935 mg and 3.8874 mg
- LP-182 Recovered (mg) Feces ([1]; Dose 1000 mg/kg): 3.5565 mg and 6.4352 mg and 5.241 mg and 6.6537 mg
- LP-182 Recovered (mg) Urine ([1]; Dose 100 mg/kg): 0.001008 mg and 1.367e-05 mg and 0.0001025 mg and 0.00204 mg
- LP-182 Recovered (mg) Urine ([1]; Dose 200 mg/kg): 4.24e-05 mg and 0.0002221 mg and 5.303e-05 mg and 0.0002304 mg
- LP-182 Recovered (mg) Urine ([1]; Dose 400 mg/kg): 0.0004111 mg and 0.000386 mg and 0.0002292 mg and 0.001169 mg
- LP-182 Recovered (mg) Urine ([1]; Dose 600 mg/kg): 0.00017 mg and 0.02442 mg and 0.000379 mg and 0.001062 mg
- LP-182 Recovered (mg) Urine ([1]; Dose 800 mg/kg): 2.655e-05 mg and 0.001833 mg and 0.0008829 mg and 0.0002937 mg
- LP-182 Recovered (mg) Urine ([1]; Dose 1000 mg/kg): 0.0001091 mg and 2.205e-05 mg and 2.702e-05 mg and 0.001664 mg
- Fa ([1]; female, CD-1, mouse, feces, oral, 200 mg/kg, Dose 200 mg/kg): 84.4%
- Fa ([1]; female, CD-1, mouse, feces, oral, 400 mg/kg, Dose 400 mg/kg): 87%
- Fa ([1]; female, CD-1, mouse, feces, oral, 600 mg/kg, Dose 600 mg/kg): 79.5%
- Fa ([1]; female, CD-1, mouse, feces, oral, 800 mg/kg, Dose 800 mg/kg): 85.4%
- Fa ([1]; female, CD-1, mouse, feces, oral, 1000 mg/kg, Dose 1000 mg/kg): 86.8%
- dose excreted at 24 h ([1]; female, CD-1, mouse, mice, oral, feces collected after 24 h, read-out: recovery from fecal samples, % of total recovered): ~95%
- dose excreted at 48 h ([1]; female, CD-1, mouse, mice, oral, feces collected after 48 h, read-out: recovery from fecal samples, % of total recovered): 5%
- Fa ([1]; Dose 100 mg/kg, 100 mg/kg): 90% and 91.9% and 86% and 69.8%
- Fa ([1]; Dose 200 mg/kg, 200 mg/kg): 89.4% and 72.6% and 72.1%
- Fa ([1]; Dose 400 mg/kg, 400 mg/kg): 81.4% and 80.6% and 78.2%
- Fa ([1]; Dose 600 mg/kg, 600 mg/kg): 89.7% and 76.6% and 82%
- Fa ([1]; Dose 800 mg/kg, 800 mg/kg): 75.5% and 67.6% and 82%
- Fa ([1]; Dose 1000 mg/kg, 1000 mg/kg): 76.2% and 80.6% and 75.4%
- dose-independent fecal excretion (% drug recovered) of intact compound ([1]; mice, oral 100-1000 mg kg^−1, over 72 h): approximately 20%
- amount recovered in the urine ([1]; mice, oral, all time points (24, 48, 72 h)): negligible amounts
- oral bioavailability, lower threshold limit ([1]; mice, difference of administered and recovered in feces over 72 h): ≥ 80%
- Lymphatic fluid Concentration (ng/mL or ng/g) ([2]; 1 h intra-duodenal infusion 50 mg kg^−1, 0 h): 0 ng/mL or ng/g
- Lymphatic fluid Concentration (ng/mL or ng/g) ([2]; 1 h intra-duodenal infusion 50 mg kg^−1, 1 h): 1075.78 ng/mL or ng/g and 810.78 ng/mL or ng/g and 1128.99 ng/mL or ng/g and 810.9 ng/mL or ng/g and 526.14 ng/mL or ng/g and 195.59 ng/mL or ng/g and 1185.4 ng/mL or ng/g
- Lymphatic fluid Concentration (ng/mL or ng/g) ([2]; 1 h intra-duodenal infusion 50 mg kg^−1, 2 h): 15938.1 ng/mL or ng/g and 4987.49 ng/mL or ng/g and 11915.5 ng/mL or ng/g and 8277.36 ng/mL or ng/g and 1691.13 ng/mL or ng/g and 3232.84 ng/mL or ng/g and 9168 ng/mL or ng/g
- Lymphatic fluid Concentration (ng/mL or ng/g) ([2]; 1 h intra-duodenal infusion 50 mg kg^−1, 3 h): 11950.5 ng/mL or ng/g and 2555.63 ng/mL or ng/g and 6787.62 ng/mL or ng/g and 11961.6 ng/mL or ng/g and 3014.24 ng/mL or ng/g and 1175.13 ng/mL or ng/g and 13326 ng/mL or ng/g
- Lymphatic fluid Concentration (ng/mL or ng/g) ([2]; 1 h intra-duodenal infusion 50 mg kg^−1, 4 h): 4407.66 ng/mL or ng/g and 5844.35 ng/mL or ng/g and 3822.74 ng/mL or ng/g and 8176.6 ng/mL or ng/g and 1916.83 ng/mL or ng/g and 592.35 ng/mL or ng/g and 6976.86 ng/mL or ng/g
- Lymphatic fluid Concentration (ng/mL or ng/g) ([2]; 1 h intra-duodenal infusion 50 mg kg^−1, 5 h): 4529.02 ng/mL or ng/g and 3482.33 ng/mL or ng/g and 3674.05 ng/mL or ng/g and 7088.41 ng/mL or ng/g and 2106.37 ng/mL or ng/g and 169.31 ng/mL or ng/g and 7019.83 ng/mL or ng/g
- level in blood as % of total compound measured among each set of temporal fractions [2, 3]: 1.7%
- Lymphatic fluid Concentration (ng/mL or ng/g) [2, 3]: 2432.36 ng/mL or ng/g and 2631.07 ng/mL or ng/g and 1756.69 ng/mL or ng/g and 8133.27 ng/mL or ng/g and 2059.99 ng/mL or ng/g and 330.98 ng/mL or ng/g and 2839 ng/mL or ng/g
